Laboratory results taken from PubChem BioAssay AID1919015 (Molecular Pharmacology Branch, DTP, NCI, 2023).

System: OVCAR-5 complex spheroids with HUVEC/MSC, viability, % test/control
Assay: Anticancer human tumor OVCAR-5 cell line growth inhibition [AhR];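 note: spheroids exposed to compounds for 7 days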;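 for viability, T/C: 100% = DMSO vehicle control wells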
Conditions: for IC50: curve of first compound; for viability, T/C: stronger effect = lower value
Excerpt: Multicellular complex tumor spheroid response to aryl hydrocarbon receptor antagonists in combination with a variety of drugs and investigational agents in selected tumor cell lines
The current study was undertaken to assess response to aryl hydrocarbon receptor antagonists in combination with standard-of-care drugs and investigational agents in solid tumor complex spheroid models. Complex spheroids include a stromal component modeled by human endothelial cells (HUVEC) and fibroblasts modeled by human mesenchymal stem cells (MSCs). The concentration ranges selected for each drug and investigational agent were based upon clinically achievable concentrations if the clinical Cmax of the agent was known.
Compounds. The drugs and investigational agents: BAY 2416964 (NSC825713), GNF351 (NSC835774), CH-223191 (NSC835775), CPI-455 (NSC825282), aza-TdCyd (NSC777586), decitabine (NSC127716), belinostat (NSC758774), entinostat (NSC756642), pevonedistat (NSC761192), tazemetostat (NSC777109), talazoparib (NSC765396), olaparib (NSC753686), selinexor (NSC780203), nedisertib (M3814, NSC802822), bortezomib (NSC756655), venetoclax (NSC766270), doxorubicin (NSC123127), elimusertib (BAY189344, NSC800525), ceralasertib (AZD6738, NSC777638), TAK-243 (NSC785004), alisertib (NSC759677), etoposide (NSC141540), topotecan (NSC609699), eribulin (NSC707389), gemcitabine (NSC613327), carboplatin (NSC241240), cisplatin (NSC119875), and SN-38 (NSC673596) were obtained from the National Cancer Institute (NCI) Developmental Therapeutics Program Chemical Repository (32). The FDA-approved anticancer drug set is available from the Developmental Therapeutics Program at https://dtp.cancer.gov/organization/dscb/obtaining/available plates.htm. […] The stock solutions were prepared in dimethyl sulfoxide (DMSO, Sigma-Aldrich, St. Louis, MO, cat. D2650), except for the platinum compounds which were prepared in saline (Quality Biological, Gaithersburg, MD, cat. 114-055-101), at 800-fold the tested concentration and stored at -70 degrees C prior to their use. All drugs and investigational agents were tested over a range starting from a high concentration at or near the clinical Cmax and decreasing in half-log increments. If the clinical Cmax for an agent had not been determined, the highest concentration tested was 10 microM (Table 1).
Cell Culture. All cells were maintained in an incubator at 37 degrees C and 5% CO2 with 95% humidity. The PDC lines were cultured according to standard operating procedures established by the NCI PDMR (https://pdmr.cancer.gov). Briefly, all PDCs were thawed and cultured in Matrigel-coated flasks prepared with a working solution of 1X Ham's F-12 nutrient mix, without supplementation (Invitrogen, Waltham, MA, cat. 11765054), 100 U/mL penicillin-streptomycin (Invitrogen, cat. 15140122), and 2.5% Matrigel (Corning Inc., Corning, NY, cat. 354248) for the first three passages. All PDCs were cultured in complete DMEM/F-12 media containing advanced DMEM/F-12 (Invitrogen, cat. 12634028), 4.9% defined fetal bovine serum, heat inactivated (HyClone Laboratories Inc., Logan, UT, cat. SH30070.03HI), 389 ng/mL hydrocortisone (Sigma-Aldrich, cat. H4001), 9.7 ng/mL human EGF recombinant protein (Invitrogen, cat. PHG0313), 23.4 microg/mL adenine (Sigma-Aldrich, cat. A2786), 97.3 U/mL penicillin-streptomycin (Invitrogen, cat. 15140122), 1.9 mM L-glutamine (Invitrogen, cat. 25030081), and 9.7 microM Y-27632 dihydrochloride (Tocris Bioscience, Bristol, United Kingdom, cat. 1254). The PDCs were cultured in complete DMEM/F12 media without 10 microM Y-27632 dihydrochloride for at least two passages prior to the screen. The established cell lines NCI-H1341 and […] were cultured in DMEM/F-12, HEPES (Invitrogen, cat. 11330032), 5% defined fetal bovine serum (HyClone Laboratories Inc., cat. SH30070.03), ITS premix universal culture supplement [insulin (5 microg/mL), transferrin (5 microg/mL), and selenious acid (5 ng/mL)] […]

## CCc1c2c(nc3ccc(O)cc13)-c1cc3c(c(=O)n1C2)COC(=O)[C@]3(O)CC + CC(CO)NC(=O)c1cc(-c2ccc(Cl)cc2)nn(-c2cnn(C)c2)c1=O
Second compound 0.1 µM
  IC50: 6.63 nM
Second compound 0.316 µM
  IC50: 5.74 nM
Second compound 1 µM
  IC50: 7.31 nM
Second compound 3.16 µM
  IC50: 5.58 nM
Second compound 10 µM
  IC50: 10.6 nM
Second compound 0.1 µM, first compound 0.000949 µM
  viability, T/C: 77.5%
Second compound 0.1 µM, first compound 0.003 µM
  viability, T/C: 55.8%
Second compound 0.1 µM, first compound 0.00949 µM
  viability, T/C: 42.6%
Second compound 0.1 µM, first compound 0.03 µM
  viability, T/C: 37.8%
Second compound 0.1 µM, first compound 0.0949 µM
  viability, T/C: 17.8%
Second compound 0.1 µM, first compound 0.3 µM
  viability, T/C: 6.98%
Second compound 0.316 µM, first compound 0.000949 µM
  viability, T/C: 76%
Second compound 0.316 µM, first compound 0.003 µM
  viability, T/C: 54%
Second compound 0.316 µM, first compound 0.00949 µM
  viability, T/C: 43.9%
Second compound 0.316 µM, first compound 0.03 µM
  viability, T/C: 32.8%
Second compound 0.316 µM, first compound 0.0949 µM
  viability, T/C: 18.7%
Second compound 0.316 µM, first compound 0.3 µM
  viability, T/C: 6.72%
Second compound 1 µM, first compound 0.000949 µM
  viability, T/C: 70.5%
Second compound 1 µM, first compound 0.003 µM
  viability, T/C: 54.6%
Second compound 1 µM, first compound 0.00949 µM
  viability, T/C: 49.7%
Second compound 1 µM, first compound 0.03 µM
  viability, T/C: 35.9%
Second compound 1 µM, first compound 0.0949 µM
  viability, T/C: 15.5%
Second compound 1 µM, first compound 0.3 µM
  viability, T/C: 7.35%
Second compound 3.16 µM, first compound 0.000949 µM
  viability, T/C: 56.8%
Second compound 3.16 µM, first compound 0.003 µM
  viability, T/C: 47.6%
Second compound 3.16 µM, first compound 0.00949 µM
  viability, T/C: 48.5%
Second compound 3.16 µM, first compound 0.03 µM
  viability, T/C: 35.5%
Second compound 3.16 µM, first compound 0.0949 µM
  viability, T/C: 14.7%
Second compound 3.16 µM, first compound 0.3 µM
  viability, T/C: 6.85%
Second compound 10 µM, first compound 0.000949 µM
  viability, T/C: 51.7%
Second compound 10 µM, first compound 0.003 µM
  viability, T/C: 51.4%
Second compound 10 µM, first compound 0.00949 µM
  viability, T/C: 57.5%
Second compound 10 µM, first compound 0.03 µM
  viability, T/C: 34.5%
Second compound 10 µM, first compound 0.0949 µM
  viability, T/C: 17.7%
Second compound 10 µM, first compound 0.3 µM
  viability, T/C: 7.22%

## Nc1ccn(C2OC(CO)C(O)C2(F)F)c(=O)n1 (stereo not given) + CC(CO)NC(=O)c1cc(-c2ccc(Cl)cc2)nn(-c2cnn(C)c2)c1=O
Second compound 0.1 µM
  IC50: < 31.6 nM
Second compound 0.316 µM
  IC50: < 31.6 nM
Second compound 1 µM
  IC50: < 31.6 nM
Second compound 3.16 µM
  IC50: < 31.6 nM
Second compound 10 µM
  IC50: < 31.6 nM
Second compound 0.1 µM, first compound 0.0316 µM
  viability, T/C: 34.6%
Second compound 0.1 µM, first compound 0.1 µM
  viability, T/C: 32.1%
Second compound 0.1 µM, first compound 0.316 µM
  viability, T/C: 28.1%
Second compound 0.1 µM, first compound 1 µM
  viability, T/C: 29.9%
Second compound 0.1 µM, first compound 3.16 µM
  viability, T/C: 30.9%
Second compound 0.1 µM, first compound 10 µM
  viability, T/C: 29.4%
Second compound 0.316 µM, first compound 0.0316 µM
  viability, T/C: 32.9%
Second compound 0.316 µM, first compound 0.1 µM
  viability, T/C: 29.8%
Second compound 0.316 µM, first compound 0.316 µM
  viability, T/C: 28.9%
Second compound 0.316 µM, first compound 1 µM
  viability, T/C: 28.5%
Second compound 0.316 µM, first compound 3.16 µM
  viability, T/C: 31.5%
Second compound 0.316 µM, first compound 10 µM
  viability, T/C: 30.2%
Second compound 1 µM, first compound 0.0316 µM
  viability, T/C: 36.1%
Second compound 1 µM, first compound 0.1 µM
  viability, T/C: 32.4%
Second compound 1 µM, first compound 0.316 µM
  viability, T/C: 29.6%
Second compound 1 µM, first compound 1 µM
  viability, T/C: 30.4%
Second compound 1 µM, first compound 3.16 µM
  viability, T/C: 31.3%
Second compound 1 µM, first compound 10 µM
  viability, T/C: 30.1%
Second compound 3.16 µM, first compound 0.0316 µM
  viability, T/C: 37%
Second compound 3.16 µM, first compound 0.1 µM
  viability, T/C: 32.3%
Second compound 3.16 µM, first compound 0.316 µM
  viability, T/C: 29.6%
Second compound 3.16 µM, first compound 1 µM
  viability, T/C: 28.9%
Second compound 3.16 µM, first compound 3.16 µM
  viability, T/C: 28.7%
Second compound 3.16 µM, first compound 10 µM
  viability, T/C: 29.6%
Second compound 10 µM, first compound 0.0316 µM
  viability, T/C: 39.6%
Second compound 10 µM, first compound 0.1 µM
  viability, T/C: 33.9%
Second compound 10 µM, first compound 0.316 µM
  viability, T/C: 30.9%
Second compound 10 µM, first compound 1 µM
  viability, T/C: 31.2%
Second compound 10 µM, first compound 3.16 µM
  viability, T/C: 32.8%
Second compound 10 µM, first compound 10 µM
  viability, T/C: 33.8%
